Experiment [1] concerns B. subtilis 168. As to the kind of experiment: Bliss interaction score (quartile over a dose matrix) (fitness difference); higher = more antagonism (negative = synergy). A digest of the protocol: (§1)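 OD595 was read at entry into stationary phase and expressed relative to the robust mean of the no-drug wells on the same plate, capped at 1. The resulting ratio is the fitness value. The Bliss score, observed fitness minus product-based expected fitness with single-drug fitness inferred from combinations, is summarised by quartiles over technical, biological and donor/recipient replicates.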

In experiment [2] the test system is S. pneumoniae D39V. The description is as above. A digest of the protocol: as §1
Another experiment has as its system S. aureus DSM 20231. The description is as above. Put shortly: as §1
For experiment [3], the system named is S. aureus Newman. The experiment is described as above. A digest of the protocol: as §1
Experiment [4] relates to B. subtilis 168. Description: fitness (endpoint OD595 vs no drug) (fraction); higher = more growth. A digest of the protocol: (§2)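 Volumes were 30 µl per well, or 55 µl for S. pneumoniae, in 384-well plates inoculated at OD595 0.01. Media were TSB, LB Lennox or CY at 37 °C, and OD595 was read every 30 min for 14 h with first-reading background subtraction. Fitness is the ratio of optical density at stationary-phase entry to the robust mean of no-drug controls. That ratio is capped at 1.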

Experiment [5] deals with S. pneumoniae D39V. Described as above. A digest of the protocol: as §2
In experiment [6] the test system is S. aureus Newman. The experiment is described as above. Put shortly:
as §2
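For Bliss interaction score (quartile over a dose matrix) in this document: first quartile when negative (synergy) and third quartile when positive (antagonism).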

As to `CC(=O)Oc1ccccc1C(=O)O` [Acetylsalicylicacid] + CC[C@H]1OC(=O)[C@H](C)[C@@H](O[C@H]2C[C@@](C)(OC)[C@@H](O)[C@H](C)O2)[C@H](C)[C@@H](O[C@@H]2O[C@H](C)C[C@H](N(C)C)[C@H]2O)[C@](C)(O)C[C@@H](C)CN(C)[C@H](C)[C@@H](O)[C@]1(C)O [Azithromycin], the Bliss interaction score is 0.153 in the experiment on B. subtilis 168 [1], 0.0486 in the experiment on S. pneumoniae D39V [2], 0.179 with S. aureus DSM 20231 and 0.105 in the experiment on S. aureus Newman [3].

On to `CC(=O)Oc1ccccc1C(=O)O` [Acetylsalicylicacid] + CC[C@H]1OC(=O)[C@H](C)[C@@H](O[C@H]2C[C@@](C)(OC)[C@@H](O)[C@H](C)O2)[C@H](C)[C@@H](O[C@@H]2O[C@H](C)C[C@H](N(C)C)[C@H]2O)[C@](C)(OC)C[C@@H](C)C(=O)[C@H](C)[C@@H](O)[C@]1(C)O [Clarithromycin], for which the Bliss interaction score came out at 0.322 with B. subtilis 168 [1], 0.0695 in the experiment on S. pneumoniae D39V [2], 0.109 in the experiment with S. aureus DSM 20231 and 0.151 in the experiment on S. aureus Newman [3].

In the case of `CO/N=C(\C(=O)N[C@@H]1C(=O)N2C(C(=O)O)=C(COC(N)=O)CS[C@H]12)c1ccco1` [Cefuroxime] + C/C(=C\C(=O)OCCCCCCCCC(=O)O)C[C@@H]1OC[C@H](C[C@@H]2O[C@H]2[C@@H](C)[C@H](C)O)[C@@H](O)[C@H]1O [Pseudomonic acid], the results for the Bliss interaction score in the experiment on B. subtilis 168 [1] and with S. pneumoniae D39V [2] were 0.074 and 0.0629, respectively.

As for `CO/N=C(\C(=O)N[C@@H]1C(=O)N2C(C(=O)O)=C(COC(N)=O)CS[C@H]12)c1ccco1` [Cefuroxime] + O=C(O)[C@H]1/C(=C/CO)O[C@@H]2CC(=O)N21 [Clavulanic], the results for the Bliss interaction score in the experiment on B. subtilis 168 [1] and in the experiment on S. pneumoniae D39V [2] were -0.0417 and -0.0363, respectively.

As for `O=C(O)c1cn(C2CC2)c2cc(N3CCNCC3)c(F)cc2c1=O` [Ciprofloxacin] + Cc1onc(-c2ccccc2)c1C(=O)N[C@@H]1C(=O)N2[C@@H]1SC(C)(C)[C@@H]2C(=O)O [Oxacillin], the Bliss interaction score in the experiment with B. subtilis 168 [1] is -0.0871; with S. aureus DSM 20231, 0.0341; with S. aureus Newman [3] it was 0.0816. Further, the fitness was determined as 0.894 with B. subtilis 168 [4] (first compound 0.0098 µg/mL, partner 0.002 µg/mL); 0.866 in the experiment on B. subtilis 168 [4] (first compound 0.0098 µg/mL, partner 0.004 µg/mL); 0.976 with B. subtilis 168 [4] (first compound 0.0098 µg/mL, partner 0.0078 µg/mL, one replicate); 0.863 in the experiment with B. subtilis 168 [4] (first compound 0.0098 µg/mL, partner 0.008 µg/mL); 0.905 in the experiment on B. subtilis 168 [4] (first compound 0.0098 µg/mL, partner 0.0155 µg/mL, one replicate); 0.965 in the experiment on B. subtilis 168 [4] (first compound 0.0098 µg/mL, partner 0.031 µg/mL, one replicate). Also, the fitness was found to be 0.375 in the experiment with B. subtilis 168 [4] (first compound 0.0098 µg/mL, partner 0.075 µg/mL, one replicate); 0.748 in the experiment with B. subtilis 168 [4] (first compound 0.0195 µg/mL, partner 0.002 µg/mL); 0.693 with B. subtilis 168 [4] (first compound 0.0195 µg/mL, partner 0.004 µg/mL); 0.814 in the experiment on B. subtilis 168 [4] (first compound 0.0195 µg/mL, partner 0.0078 µg/mL, one replicate); 0.61 with B. subtilis 168 [4] (first compound 0.0195 µg/mL, partner 0.008 µg/mL); 0.779 in the experiment with B. subtilis 168 [4] (first compound 0.0195 µg/mL, partner 0.0155 µg/mL, one replicate). The fitness in the experiment with B. subtilis 168 [4] (first compound 0.0195 µg/mL, partner 0.031 µg/mL, one replicate) worked out at 0.729; with B. subtilis 168 [4] (first compound 0.0195 µg/mL, partner 0.075 µg/mL, one replicate), 0.0252; in the experiment on B. subtilis 168 [4] (first compound 0.0195 µg/mL, partner 0.15 µg/mL, one replicate) it was 0.0469; with B. subtilis 168 [4] (first compound 0.0195 µg/mL, partner 0.3 µg/mL, one replicate), 0.0517; in the experiment with B. subtilis 168 [4] (first compound 0.039 µg/mL, partner 0.002 µg/mL) it was 0.0478; in the experiment with B. subtilis 168 [4] (first compound 0.039 µg/mL, partner 0.004 µg/mL) it was 0.0457. Further, the fitness with B. subtilis 168 [4] (first compound 0.039 µg/mL, partner 0.0078 µg/mL, one replicate) was determined as 0.136; with B. subtilis 168 [4] (first compound 0.039 µg/mL, partner 0.008 µg/mL), 0.054; with B. subtilis 168 [4] (first compound 0.039 µg/mL, partner 0.0155 µg/mL, one replicate), 0.191; in the experiment with B. subtilis 168 [4] (first compound 0.039 µg/mL, partner 0.031 µg/mL, one replicate), 0.0978; in the experiment with B. subtilis 168 [4] (first compound 0.039 µg/mL, partner 0.075 µg/mL, one replicate) it was 0.0437; in the experiment with B. subtilis 168 [4] (first compound 0.039 µg/mL, partner 0.15 µg/mL, one replicate) it was 0.0478. Moreover, the fitness in the experiment on B. subtilis 168 [4] (first compound 0.039 µg/mL, partner 0.3 µg/mL, one replicate) is 0.0488; in the experiment with S. pneumoniae D39V [5] (first compound 0.125 µg/mL, partner 0.005 µg/mL), 0.987; in the experiment on S. pneumoniae D39V [5] (first compound 0.125 µg/mL, partner 0.01 µg/mL), 0.969; in the experiment on S. pneumoniae D39V [5] (first compound 0.125 µg/mL, partner 0.02 µg/mL) it was 0.915; in the experiment on S. pneumoniae D39V [5] (first compound 0.125 µg/mL, partner 0.04 µg/mL), 0.535; in the experiment with S. pneumoniae D39V [5] (first compound 0.25 µg/mL, partner 0.005 µg/mL, one replicate), 0.989. The fitness with S. pneumoniae D39V [5] (first compound 0.25 µg/mL, partner 0.01 µg/mL) was determined as 0.934; in the experiment with S. pneumoniae D39V [5] (first compound 0.25 µg/mL, partner 0.02 µg/mL), 0.844; in the experiment with S. pneumoniae D39V [5] (first compound 0.25 µg/mL, partner 0.04 µg/mL), 0.424; in the experiment on S. pneumoniae D39V [5] (first compound 0.5 µg/mL, partner 0.005 µg/mL), 0.815; in the experiment on S. pneumoniae D39V [5] (first compound 0.5 µg/mL, partner 0.04 µg/mL), 0.354; in the experiment on S. aureus Newman [6] (first compound 0.0375 µg/mL, partner 0.0156 µg/mL), 0.622. The fitness in the experiment with S. aureus Newman [6] (first compound 0.0375 µg/mL, partner 0.0312 µg/mL) amounted to 0.612; in the experiment on S. aureus Newman [6] (first compound 0.0375 µg/mL, partner 0.0625 µg/mL) it was 0.573; in the experiment on S. aureus Newman [6] (first compound 0.075 µg/mL, partner 0.0156 µg/mL), 0.635; with S. aureus Newman [6] (first compound 0.075 µg/mL, partner 0.0312 µg/mL) it was 0.618; in the experiment on S. aureus Newman [6] (first compound 0.075 µg/mL, partner 0.0625 µg/mL) it was 0.494; with S. aureus Newman [6] (first compound 0.15 µg/mL, partner 0.0156 µg/mL) it was 0.0645. The fitness in the experiment with S. aureus Newman [6] (first compound 0.15 µg/mL, partner 0.0312 µg/mL) came to 0.0732; with S. aureus Newman [6] (first compound 0.15 µg/mL, partner 0.0625 µg/mL), 0.0443.

Take `CC(=O)Oc1cccc2c1C(=O)c1c(OC(C)=O)cc(C(=O)O)cc1C2=O` [Diacerein] + C[C@H]1COc2c(N3CCN(C)CC3)c(F)cc3c(=O)c(C(=O)O)cn1c23 [Levofloxacin]: in the experiment on S. aureus DSM 20231, the Bliss interaction score was -0.237.

With `O=C(O)c1cc(-c2ccc(F)cc2F)ccc1O` [Diflunisal] + CC(=O)O[C@H]1C[C@@]2(C)[C@@H](C[C@@H](O)[C@H]3[C@@]4(C)CC[C@@H](O)[C@@H](C)[C@@H]4CC[C@@]32C)/C1=C(\CCC=C(C)C)C(=O)O [Fusidic acid], the Bliss interaction score in the experiment with S. aureus DSM 20231 worked out at 0.199.

For `O=C(O)c1cc(-c2ccc(F)cc2F)ccc1O` [Diflunisal] + CN(C)C(=O)C(CCN1CCC(O)(c2ccc(Cl)cc2)CC1)(c1ccccc1)c1ccccc1 [Loperamide], the Bliss interaction score in the experiment with S. aureus DSM 20231 came to 0.356.

On to `COc1cccc2c1C(=O)c1c(O)c3c(c(O)c1C2=O)C[C@@](O)(C(=O)CO)C[C@@H]3O[C@H]1C[C@H](N)[C@H](O)[C@H](C)O1` [Doxorubicin] + CCCSc1nc(N[C@@H]2C[C@H]2c2ccc(F)c(F)c2)c2nnn([C@@H]3C[C@H](OCCO)[C@@H](O)[C@H]3O)c2n1 [Ticagrelor], for which the Bliss interaction score in the experiment on S. aureus DSM 20231 was -0.298.

Consider `C[C@H]1c2cccc(O)c2C(=O)C2=C(O)[C@]3(O)C(=O)C(C(N)=O)=C(O)[C@@H](N(C)C)[C@@H]3[C@@H](O)[C@@H]21` [Doxycycline] + CC(=O)S[C@@H]1CC2=CC(=O)CC[C@]2(C)[C@H]2CC[C@@]3(C)[C@@H](CC[C@@]34CCC(=O)O4)[C@H]12 [Spironolactone], for which the Bliss interaction score with S. aureus DSM 20231 came out at 0.239.

On to `C[C@H]1c2cccc(O)c2C(=O)C2=C(O)[C@]3(O)C(=O)C(C(N)=O)=C(O)[C@@H](N(C)C)[C@@H]3[C@@H](O)[C@@H]21` [Doxycycline] + CCCSc1nc(N[C@@H]2C[C@H]2c2ccc(F)c(F)c2)c2nnn([C@@H]3C[C@H](OCCO)[C@@H](O)[C@H]3O)c2n1 [Ticagrelor], for which the Bliss interaction score with S. aureus DSM 20231 is -0.272.

Consider `Cc1ncc([N+](=O)[O-])n1CCO` [Metronidazole] + CCCSc1nc(N[C@@H]2C[C@H]2c2ccc(F)c(F)c2)c2nnn([C@@H]3C[C@H](OCCO)[C@@H](O)[C@H]3O)c2n1 [Ticagrelor], for which the Bliss interaction score in the experiment with S. aureus DSM 20231 amounted to 0.152.

In the case of `Cc1cc(C(C)(C)C)c(O)c(C)c1CC1=NCCN1` [Oxymetazoline] + COc1cc(Cc2cnc(N)nc2N)cc(OC)c1OC [Trimethoprim], the Bliss interaction score in the experiment on S. aureus DSM 20231 came to 0.209.

The record behind these values is the supplement of paper PMC10627819.
